In ChEMBL document CHEMBL1671659, “In vitro and in vivo properties of dihydrophthalazine antifolates, a novel family of antibacterial drugs” (Antimicrob Agents Chemother, 2009):
In brackets after ≈: the same amount, converted by molar mass. Activity calls are given as the source filed them. No cut-off for these calls is given here.

Columns and labels:
[1] = Inhibition of trimethoprim-resistant Staphylococcus aureus Type S1 dihydrofolate reductase
Dihydrofolate reductase = Dihydrofolate reductase (Staphylococcus aureus, UniProt P0A017, F99Y); assay: Inhibition of trimethoprim-resistant Staphylococcus aureus DfrB type dihydrofolate reductase F98Y mutant
Staphylococcus aureus [2] = assay: Antibacterial activity against vancomycin, trimethoprim, methicillin-resistant Staphylococcus aureus VRS1 harboring dfrA and dfrB genes; type: functional
Staphylococcus aureus [3] = assay: Antibacterial activity against methicillin, vancomycin, trimethoprim-sensitive Staphylococcus aureus ATCC 29213 harboring dfrB gene; type: functional
Staphylococcus aureus [4] = assay: Antibacterial activity against vancomycin, trimethoprim-sensitive and methicillin-resistant Staphylococcus aureus ATCC 43300 harboring dfrB gene; type: functional
[5] = test system: Staphylococcus epidermidis; assay: Antibacterial activity against methicillin, vancomycin, trimethoprim-sensitive Staphylococcus epidermidis ATCC 14990 harboring dfrC gene; type: functional
[6] = test system: Staphylococcus epidermidis; assay: Antibacterial activity against methicillin, vancomycin-sensitive and trimethoprim-resistant Staphylococcus epidermidis BAS000635 harboring dfrC and dfrA genes; type: functional
[7] = Inhibition of trimethoprim-sensitive Staphylococcus aureus DfrB type dihydrofolate reductase
Haemophilus influenzae [8] = assay: Antibacterial activity against Haemophilus influenzae; type: functional
Streptococcus pneumoniae [9] = assay: Antibacterial activity against Streptococcus pneumoniae in presence of 250 ug/ml thymidine; type: functional
Staphylococcus aureus [10] = assay: Antibacterial activity against trimethoprim-sensitive Staphylococcus aureus ATCC 29213 infected in NMRI mouse model of septicemia assessed as succumbed to infections at 1.6 mg/kg, iv; type: functional, organism-based; design: dose 1.6 mg/kg
Mus musculus [11] = assay: Hepatotoxicity in NMRI mouse assessed as single-cell necrosis at 400 mg/kg administered through oral gavage for 10 days; type: toxicity, organism-based; design: dose 400 mg/kg, route oral; details: in vivo, 240 h
[12] = Tmax in NMRI mouse blood at 25 mg/kg administered through oral gavage measured after 7 hrs; type: ADME, organism-based; design: dose 25 mg/kg, route oral
Staphylococcus aureus [13] = assay: Antibacterial activity against methicillin-sensitive dfrB-positive abd dfrA, dfrG-negative Staphylococcus aureus; type: functional
Mus musculus [14] = assay: Hepatotoxicity in NMRI mouse assessed as increase in liver weight at 400 mg/kg administered through oral gavage for 5 days; type: toxicity, organism-based; design: dose 400 mg/kg, route oral; details: in vivo, 120 h
Streptococcus pneumoniae [15] = assay: Antibacterial activity against Streptococcus pneumoniae in presence of 50 ug/ml thymidine; type: functional
Streptococcus pneumoniae [16] = assay: Antibacterial activity against Streptococcus pneumoniae
Staphylococcus aureus [17] = assay: Antibacterial activity against trimethoprim-sensitive Staphylococcus aureus ATCC 29213 infected in NMRI mouse model of septicemia; type: functional
[18] = test system: Staphylococcus epidermidis; assay: Antibacterial activity against methicillin-resistant dfrC, dfrA-positive and dfrA within SCCmec-N1, dfrD-negative Staphylococcus epidermidis; type: functional
Mus musculus [19] = assay: Hepatotoxicity in NMRI mouse assessed as increase in mitosis at 400 mg/kg administered through oral gavage for 5 days; type: toxicity, organism-based; design: dose 400 mg/kg, route oral; details: in vivo, 120 h
[20] = test system: Staphylococcus epidermidis; assay: Antibacterial activity against methicillin-sensitive dfrA, dfrD-negative Staphylococcus epidermidis harboring F98Y mutation in dfrC gene; type: functional
Staphylococcus aureus [21] = assay: Antibacterial activity against methicillin-resistant dfrA within SCCmec-N1, dfrA and dfrG -negative Staphylococcus aureus harboring F98Y mutation in dfrB gene; type: functional
Haemophilus influenzae [22] = assay: Antibacterial activity against Haemophilus influenzae in presence of 50 ug/ml thymidine
Mus musculus [23] = assay: Toxicity in po dosed NMRI mouse; type: organism-based; details: in vivo
Enterococcus faecium [24] = assay: Antibacterial activity against Enterococcus faecium in presence of 250 ug/ml thymidine; type: functional
Mus musculus [25] = assay: Hepatotoxicity in NMRI mouse assessed as increase in liver weight at 400 mg/kg administered through oral gavage for 10 days; type: toxicity, organism-based; design: dose 400 mg/kg, route oral; details: in vivo, 240 h
Mycobacterium avium = assay: Antibacterial activity against Mycobacterium avium assessed as inhibition of bacterial growth at <=4 ug/ml; type: functional; design: scale not given: the % may be the effect or the level left
[26] = test system: Staphylococcus epidermidis; assay: Antibacterial activity against methicillin-sensitive dfrC-positive and dfrA, dfrD-negative Staphylococcus epidermidis; type: functional
HeLa = assay: Cytotoxicity against human HeLa cells; type: cell-based
Mus musculus [27] = assay: Hepatotoxicity in NMRI mouse assessed as single-cell necrosis at 400 mg/kg administered through oral gavage for 5 days; type: toxicity, organism-based; design: dose 400 mg/kg, route oral; details: in vivo, 120 h
Enterococcus faecalis [28] = assay: Antibacterial activity against Enterococcus faecalis in presence of 250 ug/ml thymidine; type: functional
Enterococcus faecium [29] = assay: Antibacterial activity against vancomycin-resistant dfrE, dfrF-negative and folA-positive Enterococcus faecium; type: functional
[30] = Cmax in NMRI mouse blood at 25 mg/kg administered through oral gavage measured after 7 hrs; type: ADME, organism-based; design: dose 25 mg/kg, route oral
Enterococcus faecalis [31] = assay: Antibacterial activity against Enterococcus faecalis; type: functional
Staphylococcus aureus [32] = assay: Antibacterial activity against trimethoprim-sensitive Staphylococcus aureus ATCC 29213; type: functional
Haemophilus influenzae [33] = assay: Antibacterial activity against Haemophilus influenzae in presence of 250 ug/ml thymidine; type: functional
[34] = test system: Staphylococcus epidermidis; assay: Antibacterial activity against methicillin-sensitive dfrA-positive and dfrD-negative Staphylococcus epidermidis harboring F98Y mutation in dfrC gene; type: functional
[35] = Oral bioavailability in NMRI mouse; type: ADME, organism-based; details: in vivo
[36] = test system: Staphylococcus epidermidis; assay: Antibacterial activity against methicillin-sensitive dfrC, dfrA-positive and dfrD-negative Staphylococcus epidermidis; type: functional
Enterococcus faecium [37] = assay: Antibacterial activity against Enterococcus faecium in presence of 50 ug/ml thymidine; type: functional
Staphylococcus aureus [38] = assay: Antibacterial activity against trimethoprim-resistant Staphylococcus aureus BAS003908; type: functional
Enterococcus faecalis [39] = assay: Antibacterial activity against Enterococcus faecalis in presence of 50 ug/ml thymidine; type: functional
Enterococcus faecium [40] = assay: Antibacterial activity against Enterococcus faecium; type: functional
Staphylococcus aureus [41] = assay: Antibacterial activity against methicillin-resistant dfrB, dfrG-positive and dfrA-negative Staphylococcus aureus; type: functional
Enterococcus faecium [42] = assay: Antibacterial activity against vancomycin-sensitive dfrE, dfrF-negative and folA-positive Enterococcus faecium; type: functional
Staphylococcus aureus [43] = assay: Antibacterial activity against trimethoprim-sensitive Staphylococcus aureus ATCC 29213 infected in NMRI mouse model of septicemia assessed as complete protection from infections at 3.1 mg/kg, iv; type: functional, organism-based; design: dose 3.1 mg/kg
Mus musculus [44] = assay: Hepatotoxicity in NMRI mouse assessed as inflammatory infiltrates at 400 mg/kg administered through oral gavage for 5 days; type: toxicity, organism-based; design: dose 400 mg/kg, route oral; details: in vivo, 120 h
Mus musculus [45] = assay: Hepatotoxicity in NMRI mouse assessed as increase in mitosis at 400 mg/kg administered through oral gavage for 10 days; type: toxicity, organism-based; design: dose 400 mg/kg, route oral; details: in vivo, 240 h
Mus musculus [46] = assay: Hepatotoxicity in NMRI mouse assessed as inflammatory infiltrates at 400 mg/kg administered through oral gavage for 10 days; type: toxicity, organism-based; design: dose 400 mg/kg, route oral; details: in vivo, 240 h
Enterococcus faecalis [47] = assay: Antibacterial activity against vancomycin-sensitive folA, dfrF-negative Enterococcus faecalis harboring A5T, K88N, F102Y mutation in dfrE gene; type: functional
Staphylococcus aureus [48] = assay: Antibacterial activity against methicillin-resistant dfrB, dfrA-positive and dfrA within SCCmec-N1, dfrG-negative Staphylococcus aureus; type: functional
Staphylococcus aureus [49] = assay: Antibacterial activity against trimethoprim-resistant Staphylococcus aureus BAS003908 infected in NMRI mouse model of septicemia; type: functional
Enterococcus faecalis [50] = assay: Antibacterial activity against vancomycin-sensitive dfrE, dfrF-positive and folA-negative Enterococcus faecalis; type: functional
[51] = AUC (0 to t) in NMRI mouse blood at 25 mg/kg administered through oral gavage after 7 hrs; type: ADME, organism-based; design: time < 7 hr, dose 25 mg/kg, route oral

## COc1cc(Cc2cnc(N)nc2N)cc(/C=C/C(=O)N2N=Cc3ccccc3[C@H]2c2cnc(N3CCOCC3)nc2)c1OC
[1]
  IC50: 2590 nM
Dihydrofolate reductase
  IC50: 5700 nM
Staphylococcus aureus [2]
  MIC: > 8 µg/mL
Staphylococcus aureus [3]
  MIC: 4 µg/mL (≈ 6.58 µM)
Staphylococcus aureus [4]
  MIC: 2 µg/mL (≈ 3.29 µM)
[5]
  MIC: 1 µg/mL (≈ 1.65 µM)
[6]
  MIC: > 8 µg/mL
[7]
  IC50: 46.8 nM

## COc1cc(Cc2cnc(N)nc2N)cc(/C=C/C(=O)N2N=Cc3ccccc3C2c2cnc(N3CCOCC3)nc2)c1OC (stereo not drawn)
Haemophilus influenzae [8]
  MIC: > 128 µg/mL
Streptococcus pneumoniae [9]
  MIC: ≥ 128 µg/mL
Staphylococcus aureus [10]
  Activity: inactive
Mus musculus [11]
  Activity: < 10%
[12]
  Tmax: 6 h
Staphylococcus aureus [13]
  MIC: 0.5 µg/mL (≈ 0.823 µM)
[1]
  IC50: 154 nM
Mus musculus [14]
  Activity: < 10%
Streptococcus pneumoniae [15]
  MIC: ≥ 128 µg/mL
Streptococcus pneumoniae [16]
  MIC: ≥ 128 µg/mL
Staphylococcus aureus [17]
  ED50: 1.6 mg/kg
[18]
  MIC: 1 µg/mL (≈ 1.65 µM)
Mus musculus [19]
  Activity: < 10%
[20]
  MIC: 1 µg/mL (≈ 1.65 µM)
Dihydrofolate reductase
  IC50: 124 nM
Staphylococcus aureus [21]
  MIC: 1 µg/mL (≈ 1.65 µM)
Staphylococcus aureus [2]
  MIC: 2 µg/mL (≈ 3.29 µM)
Haemophilus influenzae [22]
  MIC: ≥ 128 µg/mL
Mus musculus [23]
  Activity: 400 mg/kg
Enterococcus faecium [24]
  MIC: > 128 µg/mL
Mus musculus [25]
  Activity: < 10%
Mycobacterium avium
  Activity: 77%
[26]
  MIC: < 0.25 µg/mL
HeLa
  IC50: 12000 nM
Staphylococcus aureus [3]
  MIC: 1 µg/mL (≈ 1.65 µM)
Staphylococcus aureus [4]
  MIC: 0.5 µg/mL (≈ 0.823 µM)
Mus musculus [27]
  Activity: < 10%
Enterococcus faecalis [28]
  MIC: 2 µg/mL
[5]
  MIC: 0.25 µg/mL (≈ 0.411 µM)
Enterococcus faecium [29]
  MIC: 2 µg/mL (≈ 3.29 µM)
[30]
  Cmax: 990 ng/mL
Enterococcus faecalis [31]
  MIC: 0.5 µg/mL (≈ 0.823 µM)
Staphylococcus aureus [32]
  MIC: 0.5 µg/mL (≈ 0.823 µM)
Haemophilus influenzae [33]
  MIC: ≥ 128 µg/mL
[34]
  MIC: 1 µg/mL (≈ 1.65 µM)
[6]
  MIC: 2 µg/mL (≈ 3.29 µM)
[35]
  bioavailability: 29%
[36]
  MIC: 1 µg/mL (≈ 1.65 µM)
Enterococcus faecium [37]
  MIC: ≥ 128 µg/mL
Staphylococcus aureus [38]
  MIC: 1 µg/mL (≈ 1.65 µM)
Enterococcus faecalis [39]
  MIC: ≤ 0.25 µg/mL
Enterococcus faecium [40]
  MIC: 2 µg/mL (≈ 3.29 µM)
Staphylococcus aureus [41]
  MIC: 64 µg/mL (≈ 105 µM)
Enterococcus faecium [42]
  MIC: ≤ 0.25 µg/mL
Staphylococcus aureus [43]
  Activity: Active
Mus musculus [44]
  Activity: < 10%
[7]
  IC50: 12.2 nM
Mus musculus [45]
  Activity: < 10%
Mus musculus [46]
  Activity: < 10%
Enterococcus faecalis [47]
  MIC: 1 µg/mL (≈ 1.65 µM)
Staphylococcus aureus [48]
  MIC: 1 µg/mL (≈ 1.65 µM)
Staphylococcus aureus [48]; Staphylococcus aureus, read-out: MIC
  MIC: 0.5 µg/mL (≈ 0.823 µM)
Staphylococcus aureus [49]
  ED50: 1.6 mg/kg
Enterococcus faecalis [50]
  MIC: > 128 µg/mL
[51]
  AUC(0-t) at 7 h: 5590 ng·h/mL
